Measurements as given in PubChem BioAssay AID330 (DTP/NCI, 2004).
“And” between values parts separate entries of the source, which are not always exact repeats. Equal values may be shown once. Inconclusive results and toxic doses are left out.

Test system: P388 leukemia ip, CD2F1 mice, survival T/C
Assay: NCI In Vivo Anticancer Drug Screen. Data for tumor model P388 Leukemia (intraperitoneal) in CD2F1 (CDF1) mice
Conditions: endpoint: median survival time, higher = longer survival
In short: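 Mice carrying the transplanted tumor received test compound or vehicle. Survival was recorded in each group, and the value is the treated-group measurement divided by that of the vehicle-treated control group.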

[1] = dose: 50.0 mg/kg/injection, schedule: Q01DX009 (ip), vehicle: saline with Tween-80
[2] = dose: 100.0 mg/kg/injection, schedule: Q01DX009 (ip), vehicle: saline with Tween-80
[3] = dose: 200.0 mg/kg/injection, schedule: Q01DX009 (ip), vehicle: saline with Tween-80
[4] = dose: 100.0 mg/kg/injection, schedule: Q04DX002 (ip), vehicle: Klucel (hydroxypropylcellulose) (HPC)
[5] = dose: 200.0 mg/kg/injection, schedule: Q04DX002 (ip), vehicle: Klucel (hydroxypropylcellulose) (HPC)
[6] = dose: 50.0 mg/kg/injection, schedule: Q01DX005 (ip), vehicle: Klucel (hydroxypropylcellulose) (HPC)
[7] = dose: 100.0 mg/kg/injection, schedule: Q01DX005 (ip), vehicle: Klucel (hydroxypropylcellulose) (HPC)
[8] = dose: 200.0 mg/kg/injection, schedule: Q01DX005 (ip), vehicle: Klucel (hydroxypropylcellulose) (HPC)
[9] = dose: 50.0 mg/kg/injection, schedule: Q01DX005 (ip), vehicle: saline with Tween-80
[10] = dose: 100.0 mg/kg/injection, schedule: Q01DX005 (ip), vehicle: saline with Tween-80
[11] = dose: 200.0 mg/kg/injection, schedule: Q01DX005 (ip), vehicle: saline with Tween-80
[12] = dose: 12.5 mg/kg/injection, schedule: Q01DX009 (ip), vehicle: saline
[13] = dose: 50.0 mg/kg/injection, schedule: Q01DX009 (ip), vehicle: saline
[14] = dose: 100.0 mg/kg/injection, schedule: Q01DX009 (ip), vehicle: saline
[15] = dose: 3.12 mg/kg/injection, schedule: Q01DX009 (ip), vehicle: saline
[16] = dose: 6.25 mg/kg/injection, schedule: Q01DX009 (ip), vehicle: saline
[17] = dose: 200.0 mg/kg/injection, schedule: Q01DX009 (ip), vehicle: saline

## Cc1ccc2c(c1)CN(C13CC4CC(CC(C4)C1)C3)CO2
dose: 66.0 mg/kg/injection, schedule: Q04DX003 (ip), vehicle: saline with Tween-80
  T/C: 95 % of control
dose: 100.0 mg/kg/injection, schedule: Q04DX003 (ip), vehicle: saline with Tween-80
  T/C: 100 % of control
dose: 150.0 mg/kg/injection, schedule: Q04DX003 (ip), vehicle: saline with Tween-80
  T/C: 100 % of control
dose: 200.0 mg/kg/injection, schedule: Q04DX003 (ip), vehicle: saline with Tween-80
  T/C: 105 % of control
dose: 400.0 mg/kg/injection, schedule: Q04DX003 (ip), vehicle: saline with Tween-80
  T/C: 115 % of control

## CC(C)C(NC(=O)OCC[P+](c1ccccc1)(c1ccccc1)c1ccccc1)C(=O)O (stereo not given)
[1]
  T/C: 116 % of control
[2]
  T/C: 103 % of control
[3]
  T/C: 91 % of control

## CC(=O)CC(=O)Nc1ccc(Oc2ccccc2)cc1
[4]
  T/C: 100 % of control
[5]
  T/C: 97 % of control
dose: 400.0 mg/kg/injection, schedule: Q04DX002 (ip), vehicle: Klucel (hydroxypropylcellulose) (HPC)
  T/C: 96 % of control

## CN(CCC(=O)c1ccc(Cl)cc1)CCC(=O)c1ccc(Cl)cc1
[6]
  T/C: 117 % of control
[7]
  T/C: 108 % of control
[8]
  T/C: 104 % of control

## CC(=O)Nc1ccc(C(=O)C(C)=O)cc1
[1]
  T/C: 100 % of control
[2]
  T/C: 104 % of control
[3]
  T/C: 97 % of control

## O=C1CC(C(=O)N2Cc3cc4ccccc4nc3C2)CO1 (stereo not given)
dose: 3.13 mg/kg/injection, schedule: Q01DX009 (ip), vehicle: saline with Tween-80
  T/C: 100 % of control and 98 % of control
dose: 6.25 mg/kg/injection, schedule: Q01DX009 (ip), vehicle: saline with Tween-80
  T/C: 99 % of control and 100 % of control and 115 % of control
dose: 12.5 mg/kg/injection, schedule: Q01DX009 (ip), vehicle: saline with Tween-80
  T/C: 106 % of control and 124 % of control and 98 % of control
dose: 25.0 mg/kg/injection, schedule: Q01DX009 (ip), vehicle: saline with Tween-80
  T/C: 100 % of control (2×) and 108 % of control
[1]
  T/C: 100 % of control

## COc1nc(N)nc2c1ncn2C1CC(O)C(CO)O1 (stereo not given)
[6]
  T/C: 100 % of control
[7]
  T/C: 100 % of control
[8]
  T/C: 112 % of control

## CC(=O)OC(CC(=O)CC(O)(C(F)(F)F)C(F)(F)F)(C(F)(F)F)C(F)(F)F
dose: 6.25 mg/kg/injection, schedule: Q04DX003 (ip), vehicle: saline
  T/C: 104 % of control
dose: 12.5 mg/kg/injection, schedule: Q04DX003 (ip), vehicle: saline
  T/C: 90 % of control

## CCCCCCCCCCCc1c(O)c(O)c(-c2ccccn2)c2nonc12
[9]
  T/C: 106 % of control
[10]
  T/C: 103 % of control
[11]
  T/C: 98 % of control

## COc1ccc2c(c1)OC1COc3cc(OC)c(OC)cc3C1C2=O (stereo not given)
[12]
  T/C: 101 % of control
dose: 25.0 mg/kg/injection, schedule: Q01DX009 (ip), vehicle: saline
  T/C: 94 % of control
[13]
  T/C: 92 % of control
[14]
  T/C: 93 % of control

## O=C1CC(c2ccc(OCN(CCCl)CCCl)cc2)CC(=O)C1CN(CCCl)CCCl (stereo not given)
dose: 2.0 mg/kg/injection, schedule: Q01DX009 (ip), vehicle: Klucel (hydroxypropylcellulose) (HPC)
  T/C: 117 % of control
dose: 4.0 mg/kg/injection, schedule: Q01DX009 (ip), vehicle: Klucel (hydroxypropylcellulose) (HPC)
  T/C: 160 % of control
dose: 8.0 mg/kg/injection, schedule: Q01DX009 (ip), vehicle: Klucel (hydroxypropylcellulose) (HPC)
  T/C: 153 % of control
dose: 16.0 mg/kg/injection, schedule: Q01DX009 (ip), vehicle: Klucel (hydroxypropylcellulose) (HPC)
  T/C: 166 % of control and 173 % of control
dose: 32.0 mg/kg/injection, schedule: Q01DX009 (ip), vehicle: Klucel (hydroxypropylcellulose) (HPC)
  T/C: 190 % of control

## CCC[CH2][Sn]([CH2]CCC)([CH2]CCC)[CH2]CC[N+](C)(CCO)CCO.CS(=O)(=O)[O-]
[15]
  T/C: 87 % of control
[16]
  T/C: 91 % of control
[12]
  T/C: 97 % of control
[13]
  T/C: 86 % of control
[14]
  T/C: 95 % of control
[17]
  T/C: 98 % of control

## CC1(C)OCC2OC3OC(C)(C)OC3C(OS(C)(=O)=O)C2O1 (stereo not given)
[9]
  T/C: 98 % of control
[10]
  T/C: 105 % of control
[11]
  T/C: 99 % of control

## CC(C)=N/N=C1\C(OC(=O)Nc2ccccc2)=Nc2ccccc21
[9]
  T/C: 96 % of control
[10]
  T/C: 95 % of control
[11]
  T/C: 90 % of control

## C[CH2][Ge]([CH2]C)[CH2]C(=O)OC.C[CH2][Ge]([CH2]C)[CH2]C(=O)OC
[6]
  T/C: 100 % of control
[7]
  T/C: 100 % of control
[8]
  T/C: 101 % of control

## Cn1cc(CCc2cc[n+](CCC[N+](C)(C)C)cc2)c2ccccc21
dose: 1.25 mg/kg/injection, schedule: Q01DX009 (ip), vehicle: saline
  T/C: 101 % of control
dose: 2.5 mg/kg/injection, schedule: Q01DX009 (ip), vehicle: saline
  T/C: 105 % of control
dose: 5.0 mg/kg/injection, schedule: Q01DX009 (ip), vehicle: saline
  T/C: 109 % of control
dose: 10.0 mg/kg/injection, schedule: Q01DX009 (ip), vehicle: saline
  T/C: 108 % of control

## N#C/C(=C\c1cccs1)C(N)=S
[13]
  T/C: 100 % of control
[14]
  T/C: 102 % of control
[17]
  T/C: 100 % of control

## COc1cc([N+](=O)[O-])c(OC)cc1Nc1ccccc1C(=O)O
dose: 60.0 mg/kg/injection, schedule: Q01DX005 (ip), vehicle: Klucel + Tween-80
  T/C: 89 % of control
dose: 120.0 mg/kg/injection, schedule: Q01DX005 (ip), vehicle: Klucel + Tween-80
  T/C: 90 % of control

## Cc1cc(C)[s+]s1
dose: 12.5 mg/kg/injection, schedule: Q01DX009 (ip), vehicle: water
  T/C: 109 % of control
dose: 25.0 mg/kg/injection, schedule: Q01DX009 (ip), vehicle: water
  T/C: 109 % of control
dose: 50.0 mg/kg/injection, schedule: Q01DX009 (ip), vehicle: water
  T/C: 115 % of control
dose: 100.0 mg/kg/injection, schedule: Q01DX009 (ip), vehicle: water
  T/C: 117 % of control

## O=C(COc1cccc2c(=O)cc(-c3ccccc3)oc12)OCCN1CCOCC1
[6]
  T/C: 98 % of control
[7]
  T/C: 104 % of control
[8]
  T/C: 91 % of control

## CC(=O)CC(=O)CCCCCCC(=O)O
[1]
  T/C: 103 % of control
[2]
  T/C: 100 % of control
[3]
  T/C: 100 % of control

## CS(=O)(=O)NC(=O)CCC(=O)Nc1ccc(Cl)cc1
dose: 100.0 mg/kg/injection, schedule: Q01DX001 (ip), vehicle: saline with Tween-80
  T/C: 100 % of control
dose: 200.0 mg/kg/injection, schedule: Q01DX001 (ip), vehicle: saline with Tween-80
  T/C: 97 % of control
dose: 400.0 mg/kg/injection, schedule: Q01DX001 (ip), vehicle: saline with Tween-80
  T/C: 96 % of control

## CC(C)Cc1cc(-c2cc(CC(C)C)on2)no1
dose: 60.0 mg/kg/injection, schedule: Q01DX005 (ip), vehicle: saline
  T/C: 100 % of control
dose: 120.0 mg/kg/injection, schedule: Q01DX005 (ip), vehicle: saline
  T/C: 104 % of control
dose: 240.0 mg/kg/injection, schedule: Q01DX005 (ip), vehicle: saline
  T/C: 100 % of control

## CC(=O)C(C)(CC#N)C(CC=O)CCC#N (stereo not given)
dose: 60.0 mg/kg/injection, schedule: Q01DX005 (ip), vehicle: saline with Tween-80
  T/C: 111 % of control

## CCCCCc1c(-c2n[nH]c(C)c2CCCCC)n[nH]c1C
dose: 60.0 mg/kg/injection, schedule: Q01DX005 (ip), vehicle: Klucel (hydroxypropylcellulose) (HPC)
  T/C: 92 % of control
dose: 120.0 mg/kg/injection, schedule: Q01DX005 (ip), vehicle: Klucel (hydroxypropylcellulose) (HPC)
  T/C: 96 % of control
dose: 240.0 mg/kg/injection, schedule: Q01DX005 (ip), vehicle: Klucel (hydroxypropylcellulose) (HPC)
  T/C: 100 % of control

## C=C(C)C(=O)Oc1cccccc1=O
[9]
  T/C: 102 % of control
[10]
  T/C: 106 % of control
[11]
  T/C: 114 % of control

## CCCCCCCCCC[N+]1(CC)CCCCC1
[15]
  T/C: 119 % of control
[16]
  T/C: 121 % of control
[12]
  T/C: 105 % of control

## Cc1ccc(N=Nc2c(-c3ccccc3)nn(C(=S)S)c2-c2ccccc2)cc1
dose: 25.0 mg/kg/injection, schedule: Q04DX002 (ip), vehicle: Klucel (hydroxypropylcellulose) (HPC)
  T/C: 101 % of control
dose: 50.0 mg/kg/injection, schedule: Q04DX002 (ip), vehicle: Klucel (hydroxypropylcellulose) (HPC)
  T/C: 105 % of control
[4]
  T/C: 99 % of control
[5]
  T/C: 103 % of control

## CC(=O)NNC(=O)c1ccc2ccccc2n1
dose: 50.0 mg/kg/injection, schedule: Q01DX009 (ip), vehicle: saline sonified
  T/C: 100 % of control
dose: 100.0 mg/kg/injection, schedule: Q01DX009 (ip), vehicle: saline sonified
  T/C: 104 % of control
